The values that follow come from patent US10604510B2, “Solid forms comprising (1E, 4E)-2-amino-N,N-dipropyl-8-(4-(pyrrolidine-1-carbonyl)phenyl)-3H-benzo[B]azepine-4-carboxami compositions thereof, and uses thereof” (Celgene Corporation, priority 2014, dated 2020).

Assay type in all cases: physicochemical
A short description of data set [1]: Form stability analysis (solubility and concurrent slurry experiments). The protocol: As form conversions tend to happen faster at elevated temperature at 60° C., slurries were performed for the starting material used for the screening (A/G mixture) during 18 h at 60° C.
Forms J and C were identified as potential non-solvates and their stability was investigated. Form J could be eliminated as stable form because, in part, the DSC (FIG. 36) indicated an exothermic form conversion around 140° C. This leads to a form melting at 210° C., which likely represents Form G and therefore represents a monotropic relation.
Form C was obtained by drying a Form C/J mixture. The XRPD pattern appeared to contain traces of reflexes of Form J. Slurries of Form C seeded with Form A (15% w/w) in ethanol and acetone were performed during 18 h. The resulting solid was pure Form A. This also confirmed the exothermic event observed in DSC (FIG. 16) which indicated a monotropic relation to the form formed in DSC around 130° C. (melting point 210° C., which, as described herein, is likely Form G).

A short description of data set [2]: Solubility of Form A at 20° C. and 40° C. The following applies: organic solvent or mixture, thermodynamic from solid. The protocol: (§1) For purity estimation and determination of the solubility in solution a generic in-house HPLC method was used. HPLC was performed using a Phenomenex Luna 3 μm C18 (50×4.6 mm) column and detected with a DAD detector, recording at 214 nm.
To develop a Form A crystallization, a series of solubility data points was collected (Table 5). An amount of up to 15 mg was suspended in 150 μL and the mixture stirred for 2 days. Solubility was then determined by HPLC or by calculation if a solution was observed.

The nature of data set [3]: Slurry screening, solubility determined by HPLC. The following applies: thermodynamic from solid; for solubility at 5 days: slurry stirred 5 days; for Solubility: solution. The protocol: as §1
The slurry experiments were performed by taking approximately 40 mg starting material and slurrying in each of the solvent mixtures as detailed Table 3 using a magnetic stir bar. Solvents were chosen as described to have a high diversity (e.g., in polarity, protic/aprotic). The solvents were not necessarily selected for pharmaceutical suitability in regards to ICH guidelines. Only as much solvent or mixtures as needed to slurry/suspend the material was used—starting from 200 μL to a maximum of 2 mL. The slurries were stirred for 5 days. The suspensions were filtered and the filter cake slightly dried to not destroy potential solvates and subjected to XRPD. In case suspensions started to run through the filter the suspensions were dried using a nitrogen stream. As the solubility was tested in the solvents, the evaporated solvent provides a small amount of solid compared to the material suspended (i.e., the slurry form still should be dominant).

Data set [4] is described as follows: Solubility of Forms A and G after 40 min stirring. Conditions: organic solvent or mixture, thermodynamic from solid. The protocol: as §1

In brackets after ≈: the same amount, converted by molar mass. Read-outs that look alike come from different tables or passages of the source.

On to `CCCN(CCC)C(=O)C1=Cc2ccc(-c3ccc(C(=O)N4CCCC4)cc3)cc2N=C(N)C1` [Form H, (1E, 4E)-2-amino-N,N-dipropyl-8-(4-(pyrrolidine-1-carbonyl)phenyl)-3H-benzo[b]azepine-4-carboxamide], for which the “stability relative to other crystalline forms” value in data set [1] is reported as “Form A is more stable than Form H”.
As to `CCCN(CCC)C(=O)C1=Cc2ccc(-c3ccc(C(=O)N4CCCC4)cc3)cc2N=C(N)C1` [Form A, (1E, 4E)-2-amino-N,N-dipropyl-8-(4-(pyrrolidine-1-carbonyl)phenyl)-3H-benzo[b]azepine-4-carboxamide], the solubility at 2 days in data set [2] (2-PrOH, 20° C., stirred 2 days) turned out to be 4500 µg/mL (≈ 9.81 mM); in data set [2] (2-PrOH, 40° C., stirred 2 days), 9590 µg/mL (≈ 20.9 mM); in data set [2] (DMSO, 20° C., stirred 2 days), 21600 µg/mL (≈ 47.1 mM); in data set [2] (DMSO, 40° C., stirred 2 days), 50900 µg/mL (≈ 111 mM); in data set [2] (DMSO/EtOAc 1:1 v/v, 20° C., stirred 2 days), 15000 µg/mL (≈ 32.7 mM); in data set [2] (DMSO/EtOAc 1:1 v/v, 40° C., stirred 2 days) it was 36900 µg/mL (≈ 80.5 mM). Further, the solubility at 2 days stood at 17200 µg/mL (≈ 37.5 mM) in data set [2] (DMSO/TBME 1:1 v/v, 20° C., stirred 2 days); 44600 µg/mL (≈ 97.3 mM) in data set [2] (DMSO/TBME 1:1 v/v, 40° C., stirred 2 days); 8500 µg/mL (≈ 18.5 mM) in data set [2] (EtOH, 20° C., stirred 2 days); 24000 µg/mL (≈ 52.3 mM) in data set [2] (EtOH, 40° C., stirred 2 days); 3700 µg/mL (≈ 8.07 mM) in data set [2] (THF, 20° C., stirred 2 days); 7700 µg/mL (≈ 16.8 mM) in data set [2] (THF, 40° C., stirred 2 days). For the same compound, the solubility at 2 days was 13400 µg/mL (≈ 29.2 mM) in data set [2] (THF/EtOH 8:2 v/v, 20° C., stirred 2 days); 27800 µg/mL (≈ 60.6 mM) in data set [2] (THF/EtOH 8:2 v/v, 40° C., stirred 2 days); 38600 µg/mL (≈ 84.2 mM) in data set [2] (THF/H2O 8:2 v/v, 20° C., stirred 2 days); above 100000 µg/mL in data set [2] (THF/H2O 8:2 v/v, 40° C., clear solution with 10 vol of solvent mix); 23100 µg/mL (≈ 50.4 mM) in data set [2] (Toluene/2-PrOH 7:3 v/v, 20° C., stirred 2 days); 45900 µg/mL (≈ 100 mM) in data set [2] (Toluene/2-PrOH 7:3 v/v, 40° C., stirred 2 days). Further, the solubility at 2 days in data set [2] (Toluene/MeOH 7:3 v/v, 20° C., clear solution with 10 vol of solvent mix) was above 100000 µg/mL; in data set [2] (Toluene/MeOH 7:3 v/v, 40° C., clear solution with 10 vol of solvent mix), above 100000 µg/mL. In addition, the “stability relative to other crystalline forms” value in data set [1] is “more stable than Form G at 20 °C”. The “thermodynamic stability of the crystalline form” value in data set [1] (from 0° C. to 60° C.) is listed as “thermodynamically most stable form”.
Turning to `CCCN(CCC)C(=O)C1=Cc2ccc(-c3ccc(C(=O)N4CCCC4)cc3)cc2N=C(N)C1` [starting material, (1E, 4E)-2-amino-N,N-dipropyl-8-(4-(pyrrolidine-1-carbonyl)phenyl)-3H-benzo[b]azepine-4-carboxamide], in data set [1] (slurries during 18 h at 60° C.), the “form of isolated solid after slurry” value was “pure Form A”. Moreover, the solubility at 5 days stood at 3220 µg/mL (≈ 7.02 mM) in data set [3] (aqueous with cosolvent or surfactant or cyclodextrin, solvent EtOH/water 1/1); 21000 µg/mL (≈ 45.7 mM) in data set [3] (aqueous with cosolvent or surfactant or cyclodextrin, solvent EtOH/water 3/1); 16900 µg/mL (≈ 36.8 mM) in data set [3] (aqueous with cosolvent or surfactant or cyclodextrin, solvent IPA/water 3/1); 480 µg/mL (≈ 1.05 mM) in data set [3] (aqueous with cosolvent or surfactant or cyclodextrin, solvent ac/water 1/2); 12000 µg/mL (≈ 26.2 mM) in data set [3] (organic solvent or mixture, solvent 1-propanol); 1030 µg/mL (≈ 2.25 mM) in data set [3] (organic solvent or mixture, solvent 2-Me-THF). For the same compound, the solubility at 5 days is 6860 µg/mL (≈ 15 mM) in data set [3] (organic solvent or mixture, solvent 2-propanol); 810 µg/mL (≈ 1.77 mM) in data set [3] (organic solvent or mixture, solvent ACN); above 70000 µg/mL in data set [3] (organic solvent or mixture, solvent DCM); 28800 µg/mL (≈ 62.8 mM) in data set [3] (organic solvent or mixture, solvent DMSO); 2690 µg/mL (≈ 5.87 mM) in data set [3] (organic solvent or mixture, solvent EtOAc wet); 80 µg/mL (≈ 0.174 mM) in data set [3] (organic solvent or mixture, solvent MCH). Also, the solubility at 5 days amounted to 3670 µg/mL (≈ 8 mM) in data set [3] (organic solvent or mixture, solvent MEK); 790 µg/mL (≈ 1.72 mM) in data set [3] (organic solvent or mixture, solvent MIBK); 52300 µg/mL (≈ 114 mM) in data set [3] (organic solvent or mixture, solvent NMP); 160 µg/mL (≈ 0.349 mM) in data set [3] (organic solvent or mixture, solvent TBME); 5710 µg/mL (≈ 12.5 mM) in data set [3] (organic solvent or mixture, solvent THF); 1370 µg/mL (≈ 2.99 mM) in data set [3] (organic solvent or mixture, solvent acetone). The solubility at 5 days was 1810 µg/mL (≈ 3.95 mM) in data set [3] (organic solvent or mixture, solvent chlorobenzene); 20 µg/mL (≈ 0.0436 mM) in data set [3] (organic solvent or mixture, solvent diethylether); 5100 µg/mL (≈ 11.1 mM) in data set [3] (organic solvent or mixture, solvent dioxane); 11600 µg/mL (≈ 25.3 mM) in data set [3] (organic solvent or mixture, solvent ethanol); 570 µg/mL (≈ 1.24 mM) in data set [3] (organic solvent or mixture, solvent ethyl acetate); 20 µg/mL (≈ 0.0436 mM) in data set [3] (organic solvent or mixture, solvent heptane). Besides, the solubility at 5 days in data set [3] (organic solvent or mixture, solvent iPrOAc) amounted to 600 µg/mL (≈ 1.31 mM); in data set [3] (organic solvent or mixture, solvent methanol), 29800 µg/mL (≈ 65.1 mM); in data set [3] (organic solvent or mixture, solvent methyl acetate), 940 µg/mL (≈ 2.05 mM); in data set [3] (organic solvent or mixture, solvent toluene), 450 µg/mL (≈ 0.981 mM); in data set [3] (solvent water) it was 40 µg/mL (≈ 0.0872 mM). Further, the Solubility is above 100000 µg/mL in data set [3] (aqueous with cosolvent or surfactant or cyclodextrin, solvent HOAc/water 1/1) and above 130000 µg/mL in data set [3] (organic solvent or mixture, solvent trifluoroethanol).
For `CCCN(CCC)C(=O)C1=Cc2ccc(-c3ccc(C(=O)N4CCCC4)cc3)cc2N=C(N)C1` [Form C, (1E, 4E)-2-amino-N,N-dipropyl-8-(4-(pyrrolidine-1-carbonyl)phenyl)-3H-benzo[b]azepine-4-carboxamide], the “stability relative to other crystalline forms” value in data set [1] was “less stable than Forms A and G”. In addition, the “form of resulting solid after slurry” value in data set [1] (seeded with Form A (15% w/w), slurries in ethanol and acetone during 18 h) is reported as “pure Form A”.
As to `CCCN(CCC)C(=O)C1=Cc2ccc(-c3ccc(C(=O)N4CCCC4)cc3)cc2N=C(N)C1` [Compound A, (1E, 4E)-2-amino-N,N-dipropyl-8-(4-(pyrrolidine-1-carbonyl)phenyl)-3H-benzo[b]azepine-4-carboxamide], the solubility at 40 min in data set [4] (EtOH, 0 °C) was 4700 µg/mL (≈ 10.2 mM); in data set [4] (EtOH, 22 °C), 11700 µg/mL (≈ 25.5 mM); in data set [4] (EtOH, 60 °C), 32100 µg/mL (≈ 70 mM); in data set [4] (MEK, 0 °C), 1800 µg/mL (≈ 3.92 mM); in data set [4] (MEK, 22 °C) it was 2400 µg/mL (≈ 5.23 mM); in data set [4] (MEK, 60 °C), 3700 µg/mL (≈ 8.07 mM).
Consider `CCCN(CCC)C(=O)C1=Cc2ccc(-c3ccc(C(=O)N4CCCC4)cc3)cc2N=C(N)C1` [Form J, (1E, 4E)-2-amino-N,N-dipropyl-8-(4-(pyrrolidine-1-carbonyl)phenyl)-3H-benzo[b]azepine-4-carboxamide], for which the “stability relative to other crystalline forms” value was “less stable than Form A” in data set [1]; “less stable than Forms A and G” in data set [1] (listed as J).
